Reference: PMC10093845, “Inhibitory Activities of Samples on Tyrosinases Were Affected by Enzyme Species and Sample Addition Methods” (International Journal of Molecular Sciences, 2023)
Like-named read-outs stand apart in the source and are kept apart here.

Columns and labels:
MTYR (mushroom TYR) [1] = biological target: T1, MTYR (mushroom TYR) (Agaricus bisporus, UniProt C7FF04); assay: MTYR directly inhibitory activity; format: biochemical
Method: The MTYR directly inhibitory activity was assayed according to our previous procedure. Briefly, the reaction media was 200 µL in 96-well plates. MTYR (40 µL, 30 U/mL) in PBS (20 mM, pH 6.8) was incubated with the corresponding compound (40 µL) at 25 °C for 10 min. Then, L-DOPA ([…], 8 mM) was added to each well as a substrate. The other steps and the calculation of MTYR directly inhibitory activity were the same as above method in Section 4.2.

[2] = system: ATYR (crude TYR extracted from apple); assay: ATYR directly inhibitory activity; format: biochemical; settings: for IC50: sample in direct contact with ATYR, kojic acid inhibits only at high concentration (800–4000 µM)
Method: The preparation of fresh-cut apple slices was the same as in Section 4.4. The preparation of crude ATYR was carried out by reference and slightly adjusted. […] Finally, these apple slices were used to extract ATYR. […] After the supernatant was divided, it was quick-frozen with liquid nitrogen, and then stored in the refrigerator at −80 °C. The supernatant was used for ATYR activity analysis. In a reaction system of 200 μL, 40 µL ATYR was mixed with 40 µL corresponding compound in 96-well plates. After incubated at 25 °C for 10 min, L-DOPA (120 µL, 8 mM) was added to each well as a substrate. Once the substrate was added in reaction system, the formation of dopachrome was immediately measured at 475 nm for 30 min at 1 min intervals. […] The group setting and the calculation of ATYR directly inhibitory activity were the same as in Section 4.2.

BTYR mRNA = assay: qPCR analysis of TYR gene; format: cell-based, murine; settings: 100 μg/mL, 24 h, α-MSH stimulated
Method: Measurement of mRNA expression of TYR was determined according to our previous procedure. […] Total RNAs prepared were followed and qPCR analysis of TYR were carried on with β-actin as an internal control.

B16F10 cells [3] = settings: previous studies; cited from earlier work
B16F10 cells [4] = assay: Intracellular melanin content; format: cell-based, murine; settings: 100 μg/mL, α-MSH stimulated B16F10 cells, 48 h
Method: Measurement of intracellular melanin content was determined according to our previous procedure. Briefly, Cells were cultured by complete medium containing compounds for 48 h. Then, intracellular melanin was extracted by 1 M NaOH containing 10% DMSO. The absorbance of the dissolved melanin was obtained using a microplate reader at 405 nm. The melanin content of each treatment group was calculated with the negative control group as reference.

[5] = biological target: T2, BTYR (intracellular TYR of B16F10 cells) (Mus musculus, UniProt P11344); assay: BTYR indirectly inhibitory activity in cells cultured by compounds; format: cell-based, murine
T2 construct: The lysates, called BTYR, were centrifuged at 12,000 rpm for 10 min at 4 °C; endogenous in cells; host or cells: B16F10 murine melanoma cells
T2 sequence (P11344 19-533): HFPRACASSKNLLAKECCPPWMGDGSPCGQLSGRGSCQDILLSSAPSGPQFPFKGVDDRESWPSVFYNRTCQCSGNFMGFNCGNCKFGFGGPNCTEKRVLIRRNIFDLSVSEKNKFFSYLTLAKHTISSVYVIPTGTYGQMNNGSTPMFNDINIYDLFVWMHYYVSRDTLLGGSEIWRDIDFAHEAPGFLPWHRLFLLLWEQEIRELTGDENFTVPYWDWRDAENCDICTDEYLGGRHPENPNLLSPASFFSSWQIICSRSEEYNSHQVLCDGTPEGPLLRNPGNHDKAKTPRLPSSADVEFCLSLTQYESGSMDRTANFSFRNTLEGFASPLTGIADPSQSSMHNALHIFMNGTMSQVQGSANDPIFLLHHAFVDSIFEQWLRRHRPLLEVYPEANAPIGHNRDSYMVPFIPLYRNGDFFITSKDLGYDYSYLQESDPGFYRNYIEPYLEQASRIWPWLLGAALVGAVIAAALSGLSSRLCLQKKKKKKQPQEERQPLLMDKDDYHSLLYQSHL
Method: Referring to our previous methods. In short, B16F10 murine melanoma cells from Stem Cell Bank (Chinese Academy of Sciences, Shanghai, China) were cultured in DMEM supplemented with 10% FBS in a humidified atmosphere of 5% CO2 at 37 °C.
The BTYR indirectly inhibitory activity was assayed according to our previous procedure with slight modification. Cells were cultured by complete medium containing compounds for 48 h and lysed by 120 μL of lysis buffer to obtain crude BTYR extract. […] The molarities of EGCG were 25, 50, 100, 125, 150, 175 and 200 μM. The treatment group without samples was negative control.
In a reaction system of 100 μL, 20 μL of BTYR was mixed with 60 μL of 8 mM L-DOPA (the remaining volume was supplemented with 20 mM pH 6.8 PBS), and immediately placed at 475 nm for dynamic detection for 30 min. The absorbance was measured once per minute. The control group containing only BTYR (blank control and sample control) was set for synchronous detection to exclude background interference.
With negative control as the reference, the indirectly inhibitory activity of BTYR was calculated in the same way as in Section 4.2.

[6] = system: ATYR (crude TYR extracted from apple); assay: ATYR indirectly inhibitory activity (apple slices soaked, then enzyme extracted); settings: apple slices soaked in 1 mM for 10 min; water 0 ± 4% as negative control; negative = promotion
Method: The preparation of fresh-cut apple slices was the same as in Section 4.4. The preparation of crude ATYR was carried out by reference and slightly adjusted. […] Finally, these apple slices were used to extract ATYR. […] After the supernatant was divided, it was quick-frozen with liquid nitrogen, and then stored in the refrigerator at −80 °C. The supernatant was used for ATYR activity analysis. Apple slices, immersing in various test solutions for 10 min, were used to extract crude ATYR solution. […] The control group containing only ATYR (blank control and sample control) was set for synchronous detection to exclude background interference. With negative control as the reference, the indirectly inhibitory activity of ATYR was calculated in the same way as in Section 4.2.

B16F10 cells [7] = assay: Cell viability (CCK-8); format: cell-based, murine
Method: (§1) Referring to our previous methods. […] Measurement of cell viability was determined according to our previous procedure. In brief, cells were seeded into 96-well plates at a density of 1 × 10^4 cells/well and incubated for 24 h. Then, the culture medium was replaced with complete medium containing compound and further incubated at 37 °C for 48 h. After rinsing once with D-PBS, 100 µL DMEM containing 10% CCK-8 was added to each well. Followed by another 1 h incubation, the absorbance at 450 nm was measured. […] The cell viability was expressed as a percentage of the control.

[8] = biological target: T3, BTYR (TYR crude enzyme extract from B16F10 cells) (Mus musculus, UniProt P11344); assay: BTYR directly inhibitory activity (TYR extraction followed by sample treatment, non-cellular system); format: biochemical, murine
T3 construct: The lysates, called BTYR, were centrifuged at 12,000 rpm for 10 min at 4 °C; endogenous in cells; host or cells: B16F10 murine melanoma cells
T3 sequence (P11344 19-533): T2 sequence (P11344 19-533)
Method: B16F10 cells at the exponential phase in 10 cm^2 cell culture dish were washed with D-PBS two times and incubated for 30 min at −20 °C in 1.16 mL of lysis buffer. The lysates, called BTYR, were centrifuged at 12,000 rpm for 10 min at 4 °C.
The reaction system in 96-well plate was 100 μL. 20 μL of BTYR was mixed with 20 μL compounds and incubated at 25 °C for 10 min, then 60 μL of 8 mM L-DOPA was added to start the reaction. A Synergy H1 microplate reader (BioTek Instruments, Inc., Winooski, VT, USA) was used to dynamically monitor the optical densities at 475 nm. Absorbance was measured every minute and sustained 30 min. The initial velocity (v0) of each reaction was represented by the slope of the initial linear range of the progress curve, and was used to calculate the relative enzyme activity of each treatment [16].
BTYR directly inhibitory activity compared to negative control could be expressed by following formula [16]. Δsample = sample − sample control, Δcontrol = negative control − blank control(1) kΔsample = (Δsamplet1 − Δsamplet0)/(t1 − t0), kΔcontrol = (Δcontrolt1 − Δcontrolt0)/(t1 − t0)(2) (3) BTYR direct inhibition %=1−kΔsample/kΔcontrol×100 […]

MTYR (mushroom TYR) [9] = biological target: T1, MTYR (mushroom TYR); assay: Kinetic analysis of MTYR (Lineweaver-Burk); format: biochemical; settings: L-DOPA substrate
Method: The experimental method was the same as Section 4.8, except for the substrate concentration and compound concentration. A series of experiments were performed to determine the type of inhibition.
The molarities of L-DOPA were 0.0625, 0.25, 1, 4 and 8 mM. […] The Km and Vmax of MTYR were determined by the Michaelis–Menten equation. The Lineweaver–Burk plot was used to display the data. Secondary replot of Lineweaver–Burk plot or intercept was used to display inhibition constant (Ki) and α.

MTYR = settings: cited from earlier work
HTYR = settings: cited from earlier work
Cell viability (CCK-8) = format: cell-based, murine; settings: mouse, B16F10 melanoma cells, 48 h
Method: as §1

HMV-II = system: HMV-II; design: method as in PMID 15056856; settings: concentration lower than 1 mM; cited from earlier work

T1 sequence (C7FF04 1-392): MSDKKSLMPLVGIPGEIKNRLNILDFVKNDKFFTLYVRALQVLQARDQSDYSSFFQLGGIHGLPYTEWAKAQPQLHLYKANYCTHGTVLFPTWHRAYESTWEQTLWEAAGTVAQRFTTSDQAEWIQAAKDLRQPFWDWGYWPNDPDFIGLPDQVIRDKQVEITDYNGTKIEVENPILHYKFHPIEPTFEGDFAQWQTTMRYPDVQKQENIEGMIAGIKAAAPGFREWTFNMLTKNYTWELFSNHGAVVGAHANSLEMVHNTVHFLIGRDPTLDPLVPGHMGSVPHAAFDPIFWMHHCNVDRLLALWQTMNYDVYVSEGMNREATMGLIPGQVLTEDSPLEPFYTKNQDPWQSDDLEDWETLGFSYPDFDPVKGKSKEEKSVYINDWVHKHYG
T1 sequence (G1K3P4 1-150 partner): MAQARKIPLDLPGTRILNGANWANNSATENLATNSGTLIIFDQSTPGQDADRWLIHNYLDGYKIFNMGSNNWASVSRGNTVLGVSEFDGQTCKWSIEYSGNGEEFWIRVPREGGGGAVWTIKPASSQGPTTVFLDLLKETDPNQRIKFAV

O=C(O[C@@H]1Cc2c(O)cc(O)cc2O[C@@H]1c1cc(O)c(O)c(O)c1)c1cc(O)c(O)c(O)c1 [EGCG, Epigallocatechin gallate]
IC50 (MTYR (mushroom TYR) [1]; L-DOPA substrate): 1420 ± 61 µM | MTYR directly inhibitory activity relative to kojic acid (MTYR (mushroom TYR) [1]; ratio of IC50): 1/15 | IC50 [2]: 1770 ± 20 µM | mRNA expression of BTYR in cells (BTYR mRNA): significantly inhibit | concentration significantly reducing melanin content of B16F10 cells in a dose-dependent manner (B16F10 cells [3]): 55 to 218 µM | intracellular melanin content (B16F10 cells [4]): significantly reduce | intracellular BTYR activity ([5]; 100 μg/mL, α-MSH stimulated B16F10 cells, 48 h): inhibit intracellular BTYR activity | IC50 ([5]; cells cultured with compound 48 h, then TYR extracted): 195 ± 3 µM | ATYR indirectly inhibitory activity [6]: −7 ± 7% | Cell Viability (%) (B16F10 cells [7]; 25 µM, 48 h): 100 ± 2% | Cell Viability (%) (B16F10 cells [7]; 50 µM, 48 h): 98 ± 2% | Cell Viability (%) (B16F10 cells [7]; 100 µM, 48 h): 95 ± 6% | Cell Viability (%) (B16F10 cells [7]; 200 µM, 48 h): 106 ± 1% | Cell Viability (%) (B16F10 cells [7]; 400 µM, 48 h): 66 ± 4% | Cell Viability (%) (B16F10 cells [7]; 600 µM, 48 h): 4 ± 0% | Cell Viability (%) (B16F10 cells [7]; 800 µM, 48 h): 2 ± 1% | Cell Viability (%) (B16F10 cells [7]; 1000 µM, 48 h): 1 ± 1% | Cell Viability (%) (B16F10 cells [7]; 1200 µM, 48 h): −1 ± 0% | catalytic activity of BTYR in non-cellular system ([8]; 100 μg/mL): could not | BTYR direct inhibition rate ([8]; 0.025–2.4 mM EGCG): < 50% | Inhibition type (MTYR (mushroom TYR) [9]): competitive | Km (change with increasing compound molarity) (MTYR (mushroom TYR) [9]): increasing | Vmax (change with increasing compound molarity) (MTYR (mushroom TYR) [9]): constant | Ki (MTYR (mushroom TYR) [9]; replot of Lineweaver–Burk slopes): 170 µM

Oc1ccc(O)cc1 [hydroquinone]
IC50 (MTYR; read-out: IC50 on MTYR): 1.1 µM | activity on HTYR relative to that on MTYR (HTYR): 1/4000 | IC50 (HTYR; read-out: IC50 on HTYR): 4400 µM

O=c1cc(CO)occ1O [kojic acid]
EC50 ([2]; low concentration (12.5–400 µM) of kojic acid, read-out: EC50, promotion of ATYR activity): 96 ± 4 µM | IC50 [2]: 2110 ± 20 µM | mRNA expression of BTYR in cells (BTYR mRNA): significantly inhibit | concentration significantly reducing melanin content of B16F10 cells in a dose-dependent manner (B16F10 cells [3]): 175 to 700 µM | intracellular melanin content (B16F10 cells [4]): significantly reduce | ATYR indirectly inhibitory activity [6]: −71 ± 4% | viability at 48 h, 25 µM (Cell viability (CCK-8); 25 µM): 100 ± 4% | viability at 48 h, 50 µM (Cell viability (CCK-8); 50 µM): 101 ± 2% | viability at 48 h, 100 µM (Cell viability (CCK-8); 100 µM): 95 ± 1% | viability at 48 h, 200 µM (Cell viability (CCK-8); 200 µM): 90 ± 3% | viability at 48 h, 400 µM (Cell viability (CCK-8); 400 µM): 90 ± 3% | viability at 48 h, 600 µM (Cell viability (CCK-8); 600 µM): 96 ± 5% | viability at 48 h, 800 µM (Cell viability (CCK-8); 800 µM): 99 ± 4%

OC[C@H]1O[C@H](Oc2ccc(O)cc2)[C@H](O)[C@@H](O)[C@@H]1O [α-arbutin]
inhibition of the diphenolase activity of MTYR (MTYR): could not inhibit | effect on growth of HMV-II (HMV-II): did not inhibit the growth

OC[C@H]1O[C@@H](Oc2ccc(O)cc2)[C@H](O)[C@@H](O)[C@@H]1O [β-arbutin]
promotion of ATYR activity (max) ([2]; 0.025–320 mM β-arbutin, direct): ≤ 21% | IC50 (MTYR; read-out: IC50, diphenolase activity of MTYR): 8400 µM | concentration significantly reducing melanin content of B16F10 cells in a dose-dependent manner (B16F10 cells [3]): 43.8 to 700 µM | ATYR indirectly inhibitory activity [6]: 80 ± 0% | Cell Viability (%) (B16F10 cells [7]; 25 µM): 108 ± 2% | Cell Viability (%) (B16F10 cells [7]; 50 µM): 115 ± 4% | Cell Viability (%) (B16F10 cells [7]; 100 µM): 125 ± 2% | Cell Viability (%) (B16F10 cells [7]; 200 µM): 138 ± 3% | Cell Viability (%) (B16F10 cells [7]; 400 µM): 171 ± 1% | Cell Viability (%) (B16F10 cells [7]; 600 µM): 195 ± 3% | Cell Viability (%) (B16F10 cells [7]; 800 µM): 206 ± 0% | Cell Viability (%) (B16F10 cells [7]; 1000 µM): 211 ± 1% | Cell Viability (%) (B16F10 cells [7]; 1200 µM): 222 ± 2%
